{
  "source": "paper PMC7801313",
  "about": "“Effect of lurbinectedin on the QTc interval in patients with advanced solid tumors: an exposure–response analysis” (Cancer Chemotherapy and Pharmacology, 2020)",
  "key": {"[1]": {"system": "telemetered dogs", "parameters": "method as in data on file", "settings": "single i.v. bolus at maximum tolerated dose, ref data on file; cited from earlier work"}, "[2]": {"system": "oncogenic transcription", "parameters": "method as in PMID 20977459", "settings": "cited from earlier work"}, "[3]": {"system": "patients with advanced solid tumors", "test": "concentration-ΔQTcF linear mixed-effects modelling", "format": "in vivo, human", "description": "C–ΔQTcF was assessed using a linear mixed-effects (LME) model, as proposed by Garnett et al.. As the data available came from a single arm study, the LME model was characterized by the intercept ( θ1 ) and the slope ( θ2 ), and their corresponding variabilities.1 ΔQTcFij=θ1·e^η1,i+θ2·e^η2,i·Cij+θ3·Cycle+ϵij, where Cij is the model-predicted lurbinectedin total plasma concentrations (or the lurbinectedin concentrations in the effect compartment if a hysteresis is present), and η1,i and η2,i are the random effects associated with the intercept term θ1 and the slope term θ2 , respectively, and are assumed to be exponential, independent, and normally distributed. Furthermore, ϵij is the random residual variability, assumed to be an additive, independent, and normally distributed random variable. In the absence of placebo data, the unstructured placebo model consisting on the fixed effect parameters accounting for treatment-specific intercept (TRT), mean ΔQTcF at each time point evaluated (TIME), and baseline QTc was not included in the model. Based on the fact that ECG and PK assessments in this study were performed on two occasions (cycle 1 and cycle 2), the effect of cycle θ3 was also assessed in the models. To select the model for the C-ΔQTcF analysis (i.e., direct or indirect), a potential delay of the ΔQTcF effect relative to plasma concentrations (hysteresis) was graphically and statistically assessed, as proposed by Darpo et al.. To enable an adequate comparison of the model fit between the direct effect model and the effect compartment model, the model-based predicted total plasma concentrations at central compartment (“direct” model) and at the effect compartment (“indirect” model) were used. These were based on the individual PK parameters, obtained through a maximum a posteriori estimation based on the individual total plasma concentration available for each subject and a population PK model previously developed.\nThe assumption of linearity of the C–ΔQTcF relationship was assessed by goodness-of-fit plots. Besides, a model with an empirical quadratic term of total plasma concentration was fitted and the significance of the quadratic term was tested. In case of the absence of trends in the goodness-of-fit plots and a non-significant quadratic term, the C–∆QTcF relationship was considered linear; otherwise, the relationship was considered non-linear.\nThe predicted effect of lurbinectedin on ΔQTcF was estimated at the Cmax geometric mean either at the central or at the effect compartment in the first two cycles following the administration of 3.2 mg/m^2 i.v. over 1-h q3wk and was calculated as the estimated intercept ( θ1,Est ) plus the product of the estimated slope ( θ2,Est ) and geometric mean Cmax ( C ):2 EstimatedMeanΔQTcFC=θ1,Est+C×θ2,Est.\nTwo-sided 90% confidence intervals (CIs) of the estimated ΔQTcF were computed from Eqs. 3 and 4:3 EstimatedSE=varθ1,Est+C^2varθ2,Est+2Ccovθ1,Estθ2,Est 4 90%CI=EstimatedMeanΔQTcC±t0.95,DF×EstimatedSE, where varθ1,Est is the variance of the intercept, varθ2,Est is the variance of the slope, and covθ1,Estθ2,Est is the covariance of intercept and slope; t is the critical value determined from the t-distribution; DF is the degrees of freedom; SE is the standard error; and CI is the confidence interval.\nTo exclude a prolongation of QT for lurbinectedin assuming that there is no placebo effect, the upper bound (UB) of the 2-sided 90% CI of the model-predicted mean ΔQTcF had to be lower than 10 ms (threshold set at the ICH E14 Q&A R3 [11]), at the Cmax geometric mean obtained after administration of the clinically relevant dose of 3.2 mg/m^2 i.v. over 1-h q3wk.\nThe Cmax geometric mean either at the central or at the effect compartment, at which UB 90% CI of the model-predicted mean ΔQTcF would be above 10 ms and 20 ms thresholds, was also estimated according to the formulas provided above."}, "[4]": {"system": "patients", "parameters": "method as in PMID 24563480", "settings": "cited from earlier work"}, "[5]": {"parameters": "method as in data on file", "settings": "ref data on file; cited from earlier work"}, "[6]": {"test": "lurbinectedin plasma pharmacokinetics in the QT evaluation study", "format": "in vivo, human", "description": "In cycle 1 and cycle 2, the following triplicate ECGs were collected 5–10 min before their time-matched PK time points: 5 min before end of the lurbinectedin infusion (EOI), 30 min, 1, 3, 24, 72 (only on cycle 1), and 168 h after EOI.\nPharmacokinetic (PK) profiles of lurbinectedin were obtained on cycle 1 and cycle 2. Following ECGs’ acquisition, blood samples were collected into K3EDTA tubes. Tubes were gently inverted several times and centrifuged at 2000 × g for 10 min at 4 °C to separate the plasma.\nPlasma concentrations of lurbinectedin were measured by a validated liquid chromatography–mass spectrometry assay (Dynakin S.L., Spain), with ranges of 0.1–50 µg/L. The within- and between-day precisions ranged from 2.7 to 12.9% and from 5.1 to 10.7%, respectively. The within- and between-day accuracy (bias) ranged from 10 to 12% and from 5 to 6%, respectively.\nDatasets were prepared using SAS Enterprise Guide v.7.11 HF3 (SAS Institute Inc., Cary, NC, USA). Non-compartmental PK parameters were determined using Phoenix WinNonlin v.6.3 (Certara, USA). Non-linear mixed-effect modelling was performed in NONMEM v.7.3.0 (GloboMax LLC, Hanover, MD, USA). Graphical and all other statistical analyses were performed in R v.3.2.5 (R Foundation for Statistical Computing, Vienna, Austria)."}},
  "data": [
    {"compound": "COc1ccc2[nH]c3c(c2c1)CCN[C@]31CS[C@@H]2c3c(OC(C)=O)c(C)c4c(c3[C@H](COC1=O)N1[C@@H]2[C@H]2c3c(cc(C)c(OC)c3O)C[C@@H]([C@@H]1O)N2C)OCO4", "note": "[lurbinectedin, Lurbinectedin]", "values": [
      {"measurement": "cardiovascular changes", "setting": "[1]", "value": "mild decreases in blood pressure and increased heart rate"},
      {"measurement": "effects on lead II ECG variables (PR, QT, QTcF, QTcV, QRS), ECG gross morphology, cardiac rhythm", "setting": "[1]", "value": "No effects were observed"},
      {"measurement": "in vitro activity", "setting": "[2]", "value": "low nanomolar range"},
      {"measurement": "Cmax at the effect compartment associated with 10 ms UB 90% CI of ΔQTcF", "setting": "[3]; delayed effect model", "value": 36.18, "unit": "ng/mL"},
      {"measurement": "Cmax at the effect compartment associated with 20 ms UB 90% CI of ΔQTcF", "setting": "[3]; delayed effect model", "value": 61.94, "unit": "ng/mL"},
      {"measurement": "dose corresponding to 10 ms UB 90% CI of ΔQTcF", "setting": "[3]; delayed effect model", "value": 3.8, "unit": "mg/m^2"},
      {"measurement": "dose corresponding to 20 ms UB 90% CI of ΔQTcF", "setting": "[3]; delayed effect model", "value": 6.5, "unit": "mg/m^2"},
      {"measurement": "fold increase over recommended dose Cmax at 10 ms threshold", "setting": "[3]; delayed effect model", "value": 1.21, "unit": "fold"},
      {"measurement": "fold increase over recommended dose Cmax at 20 ms threshold", "setting": "[3]; delayed effect model", "value": 2.03, "unit": "fold"},
      {"measurement": "Cmax associated with 10 ms UB 90% CI of ΔQTcF", "setting": "[3]; direct effect model", "value": 129.05, "unit": "ng/mL"},
      {"measurement": "Cmax associated with 20 ms UB 90% CI of ΔQTcF", "setting": "[3]; direct effect model", "value": 241.25, "unit": "ng/mL"},
      {"measurement": "dose corresponding to 10 ms UB 90% CI of ΔQTcF", "setting": "[3]; direct effect model", "value": 3.6, "unit": "mg/m^2"},
      {"measurement": "dose corresponding to 20 ms UB 90% CI of ΔQTcF", "setting": "[3]; direct effect model", "value": 6.6, "unit": "mg/m^2"},
      {"measurement": "Cmax (central compartment)", "setting": "[3]; direct effect model, recommended dose", "value": 116.62, "unit": "ng/mL"},
      {"measurement": "Slope of C-ΔQTcF", "setting": "[3]; final delayed effect (effect compartment) model", "value": 0.289, "unit": "L·ms/µg"},
      {"measurement": "Keo, equilibration rate constant", "setting": "[3]; final delayed effect model", "value": 0.298, "unit": "h⁻¹"},
      {"measurement": "Slope of C-ΔQTcF", "setting": "[3]; final direct model", "value": 0.072, "unit": "L·ms/µg"},
      {"measurement": "most common limiting toxicity", "setting": "[4]", "value": "myelosuppression, particularly neutropenia"},
      {"measurement": "protein binding", "setting": "[5]", "value": "highly protein-bound"},
      {"measurement": "observed lurbinectedin concentration, mean (Stdv)", "setting": "[6]; Cycle 1, 0.92 h after start of infusion (Cmax)", "value": "106.02 (54.52) µg/L"},
      {"measurement": "observed lurbinectedin concentration, mean (Stdv)", "setting": "[6]; Cycle 1, 1.5 h after start of infusion", "value": "40.01 (24.35) µg/L"},
      {"measurement": "observed lurbinectedin concentration, mean (Stdv)", "setting": "[6]; Cycle 1, 2 h after start of infusion", "value": "27.22 (14.05) µg/L"},
      {"measurement": "observed lurbinectedin concentration, mean (Stdv)", "setting": "[6]; Cycle 1, 4 h after start of infusion", "value": "17.86 (8.07) µg/L"},
      {"measurement": "observed lurbinectedin concentration, mean (Stdv)", "setting": "[6]; Cycle 1, 25 h after start of infusion", "value": "3.84 (1.87) µg/L"},
      {"measurement": "observed lurbinectedin concentration, mean (Stdv)", "setting": "[6]; Cycle 1, 73 h after start of infusion", "value": "1.53 (1.13) µg/L"},
      {"measurement": "observed lurbinectedin concentration, mean (Stdv)", "setting": "[6]; Cycle 1, 169 h after start of infusion", "value": "0.51 (0.45) µg/L"},
      {"measurement": "observed lurbinectedin concentration, mean (Stdv)", "setting": "[6]; Cycle 2, 0.92 h after start of infusion (Cmax)", "value": "136.60 (145.04) µg/L"},
      {"measurement": "observed lurbinectedin concentration, mean (Stdv)", "setting": "[6]; Cycle 2, 2 h after start of infusion", "value": "28.22 (16.84) µg/L"},
      {"measurement": "observed lurbinectedin concentration, mean (Stdv)", "setting": "[6]; Cycle 2, 4 h after start of infusion", "value": "18.82 (10.94) µg/L"},
      {"measurement": "observed lurbinectedin concentration, mean (Stdv)", "setting": "[6]; Cycle 2, 169 h after start of infusion", "value": "0.56 (0.57) µg/L"},
      {"measurement": "Tmax", "setting": "[6]; cycle 1", "value": 0.92, "unit": "h"},
      {"measurement": "mean clearance (non-compartmental)", "setting": "[6]; cycle 1, 39 patients", "value": 11.8, "unit": "L/h"},
      {"measurement": "mean volume of distribution (non-compartmental)", "setting": "[6]; cycle 1, 39 patients", "value": 347.7, "unit": "L"},
      {"measurement": "Tmax", "setting": "[6]; cycle 2", "value": 4, "unit": "h"}
    ]}
  ]
}
